{
  "source": "paper PMC12133000",
  "about": "(PLOS One, 2025)",
  "test": "Pharmacokinetics of rivaroxaban in rats after avitinib or gefitinib pretreatment",
  "format": "in vivo, Sprague–Dawley (SD) rats",
  "parameters": "AUC(0-∞): concentration or dose not given beside the values",
  "protocol": "Eighteen male Sprague–Dawley (SD) rats weighing 300 ± 20 g were provided by the Experimental Animal Center of Wenzhou Medical University (Wenzhou, China) and kept under controlled conditions at a temperature of 23 ± 2 °C, relative humidity of 50 ± 10%, and 12 h light–dark cycle. Eighteen male SD rats were randomly assigned to three groups: avitinib, gefitinib, and control, with six rats per group. Prior to the experiment, the rats were not administered any other medications and fasted for 12 h. The experimental procedures and protocols adhered to Animal Ethics standards and were approved by the Animal Care and Use Committee of Wenzhou Medical University (approval no. wydw2019–650). All rats were anesthetized with sodium pentobarbital (40mg/kg, i.p) to relieve pain. The rats were killed through cervical dislocation.\nPrior to the experiment in vivo, the six rats in the avitinib group were administered 30 mg/kg avitinib and 0.5% sodium carboxymethyl cellulose (CMC-Na) solution by gavage daily for 7 d. […] The supernatant was collected and stored at −80 °C. After thawing, 50 μL of plasma was extracted; 100 μL of acetonitrile solution containing midazolam (200 ng/mL) was then added to induce protein precipitation. After vortexing for 30 s and centrifuging at 13,000 rpm for 5 min, the […].\nAll assays were performed in triplicate, and the results are expressed as mean ± standard deviation. DAS software v. […] SPSS v. 25.0 (IBM, NY, USA) was used for data processing. Student’s t-tests were used to detect differences between groups. Differences with p < 0.05 were considered statistically significant.",
  "key": {"[1]": {"settings": "avitinib group, single rats No1-No6, listed as 利伐沙班"}, "[2]": {"settings": "gefitinib group, single rats No1-No6, listed as 利伐沙班"}},
  "note": "Several values for one entry are separate records, joined by “and”; a condition that tells them apart may be missing. Identical values can stand only once.",
  "data": [
    {"compound": "O=C(NC[C@H]1CN(c2ccc(N3CCOCC3=O)cc2)C(=O)O1)c1ccc(Cl)s1", "note": "[rivaroxaban, Rivaroxaban]", "values": [
      {"measurement": "AUMC(0-t)", "setting": "avitinib group, Mean", "value": 34198, "unit": "h*h*ug/L"},
      {"measurement": "AUMC(0-∞)", "setting": "avitinib group, Mean", "value": 40098.5, "unit": "h*h*ug/L"},
      {"measurement": "MRT(0-∞)", "setting": "avitinib group, Mean", "value": 4.258, "unit": "h"},
      {"measurement": "R_AUC(t/∞)", "setting": "avitinib group, Mean", "value": 96.35, "unit": "%"},
      {"measurement": "VRT(0-t)", "setting": "avitinib group, Mean", "value": 6.828, "unit": "h^2"},
      {"measurement": "VRT(0-∞)", "setting": "avitinib group, Mean", "value": 12.881, "unit": "h^2"},
      {"measurement": "Vz/F", "setting": "avitinib group, Mean", "value": 3.719, "unit": "L/kg"},
      {"measurement": "AUC(0-t)", "setting": "[1]", "value": "6581.83 ng·h/mL and 7888.62 ng·h/mL and 9151.91 ng·h/mL and 7417.4 ng·h/mL and 6560.88 ng·h/mL and 16372.3 ng·h/mL"},
      {"measurement": "AUC(0-∞)", "setting": "[1]", "value": "6854.37 ng·h/mL and 9138.32 ng·h/mL and 9162.9 ng·h/mL and 7462.9 ng·h/mL and 6602.34 ng·h/mL and 16863.5 ng·h/mL"},
      {"measurement": "AUMC(0-t)", "setting": "[1]", "value": "25199.7 h*h*ug/L and 32914.3 h*h*ug/L and 26176.1 h*h*ug/L and 34761 h*h*ug/L and 21050.6 h*h*ug/L and 65086.6 h*h*ug/L"},
      {"measurement": "AUMC(0-∞)", "setting": "[1]", "value": "29578.1 h*h*ug/L and 55191.1 h*h*ug/L and 26325.9 h*h*ug/L and 35414.7 h*h*ug/L and 21638.6 h*h*ug/L and 72442.7 h*h*ug/L"},
      {"measurement": "CLz/F", "setting": "[1]", "value": "24.32 mL/min/kg and 18.23 mL/min/kg and 18.18 mL/min/kg and 22.3 mL/min/kg and 25.25 mL/min/kg and 9.88 mL/min/kg"},
      {"measurement": "Cmax", "setting": "[1]", "value": "1423.2 ng/mL and 1593.7 ng/mL and 2386.3 ng/mL and 1162.7 ng/mL and 1561.2 ng/mL and 2761.8 ng/mL"},
      {"measurement": "MRT(0-t)", "setting": "[1]", "value": "4.172 h and 2.86 h and 4.686 h and 3.208 h and 3.975 h"},
      {"measurement": "MRT(0-∞)", "setting": "[1]", "value": "4.315 h and 6.04 h and 4.745 h and 3.277 h and 4.296 h"},
      {"measurement": "R_AUC(t/∞)", "setting": "[1]", "value": "96% and 86.3% and 99.9% and 99.4% (2×) and 97.1%"},
      {"measurement": "VRT(0-t)", "setting": "[1]", "value": "8.179 h^2 and 9.654 h^2 and 3.358 h^2 and 8.878 h^2 and 4.734 h^2 and 6.165 h^2"},
      {"measurement": "VRT(0-∞)", "setting": "[1]", "value": "14.228 h^2 and 34.982 h^2 and 3.496 h^2 and 9.426 h^2 and 5.486 h^2 and 9.666 h^2"},
      {"measurement": "Vz/F", "setting": "[1]", "value": "5.931 L/kg and 6.375 L/kg and 1.763 L/kg and 3.171 L/kg and 3.308 L/kg and 1.765 L/kg"},
      {"measurement": "t1/2z", "setting": "[1]", "value": "2.817 h and 4.037 h and 1.12 h and 1.64 h and 1.514 h and 2.062 h"},
      {"measurement": "λz", "setting": "[1]", "value": "0.246 h⁻¹ and 0.172 h⁻¹ and 0.619 h⁻¹ and 0.423 h⁻¹ and 0.458 h⁻¹ and 0.336 h⁻¹"},
      {"measurement": "AUMC(0-t)", "setting": "gefitinib group, Mean", "value": 283625, "unit": "h*h*ug/L"},
      {"measurement": "AUMC(0-∞)", "setting": "gefitinib group, Mean", "value": 684002, "unit": "h*h*ug/L"},
      {"measurement": "R_AUC(t/∞)", "setting": "gefitinib group, Mean", "value": 79.633, "unit": "%"},
      {"measurement": "VRT(0-t)", "setting": "gefitinib group, Mean", "value": 8.14, "unit": "h^2"},
      {"measurement": "VRT(0-∞)", "setting": "gefitinib group, Mean", "value": 63.366, "unit": "h^2"},
      {"measurement": "AUC(0-t)", "setting": "[2]", "value": "48396.5 ng·h/mL and 60392.6 ng·h/mL and 53896.5 ng·h/mL and 64214.9 ng·h/mL and 58569.4 ng·h/mL"},
      {"measurement": "AUC(0-∞)", "setting": "[2]", "value": "54327.6 ng·h/mL and 62633.7 ng·h/mL and 64818.2 ng·h/mL and 71935.8 ng·h/mL and 93798.8 ng·h/mL"},
      {"measurement": "AUMC(0-t)", "setting": "[2]", "value": "349046 h*h*ug/L and 247888 h*h*ug/L and 261964 h*h*ug/L and 270195 h*h*ug/L and 282576 h*h*ug/L and 290080 h*h*ug/L"},
      {"measurement": "AUMC(0-∞)", "setting": "[2]", "value": "1493251 h*h*ug/L and 344803 h*h*ug/L and 295419 h*h*ug/L and 469845 h*h*ug/L and 411554 h*h*ug/L and 1089140 h*h*ug/L"},
      {"measurement": "Cmax", "setting": "[2]", "value": "6430.2 ng/mL and 11259.7 ng/mL and 7015.4 ng/mL and 10641.7 ng/mL and 7734.1 ng/mL"},
      {"measurement": "MRT(0-t)", "setting": "[2]", "value": "5.122 h and 4.338 h and 5.013 h and 4.4 h and 4.953 h"},
      {"measurement": "MRT(0-∞)", "setting": "[2]", "value": "13.743 h and 6.347 h and 4.717 h and 7.249 h and 5.721 h and 11.611 h"},
      {"measurement": "R_AUC(t/∞)", "setting": "[2]", "value": "57.4% and 89.1% and 96.4% and 83.2% and 89.3% and 62.4%"},
      {"measurement": "VRT(0-t)", "setting": "[2]", "value": "10.639 h^2 and 8.135 h^2 and 6.361 h^2 and 8.635 h^2 and 7.676 h^2 and 7.393 h^2"},
      {"measurement": "VRT(0-∞)", "setting": "[2]", "value": "164.942 h^2 and 21.543 h^2 and 10.309 h^2 and 38.485 h^2 and 23.734 h^2 and 121.182 h^2"},
      {"measurement": "Vz/F", "setting": "[2]", "value": "1.173 L/kg and 0.799 L/kg and 0.467 L/kg and 0.969 L/kg and 0.654 L/kg and 1.139 L/kg"},
      {"measurement": "t1/2z", "setting": "[2]", "value": "8.833 h and 3.008 h and 2.029 h and 4.352 h and 3.261 h and 7.402 h"},
      {"measurement": "λz", "setting": "[2]", "value": "0.078 h⁻¹ and 0.23 h⁻¹ and 0.342 h⁻¹ and 0.159 h⁻¹ and 0.213 h⁻¹ and 0.094 h⁻¹"},
      {"measurement": "concentration at 5 min", "setting": "male, Sprague-Dawley, rat, plasma, oral, 10 mg/kg, rivaroxaban ng/ml mean, control (rivaroxaban alone) group, mean of rats 13-18, time 0.0833", "value": 158, "unit": "ng/mL"},
      {"measurement": "concentration at 0.25 h", "setting": "male, Sprague-Dawley, rat, plasma, oral, 10 mg/kg, rivaroxaban ng/ml mean, control (rivaroxaban alone) group, mean of rats 13-18, time 0.25", "value": 259, "unit": "ng/mL"},
      {"measurement": "concentration at 0.5 h", "setting": "male, Sprague-Dawley, rat, plasma, oral, 10 mg/kg, rivaroxaban ng/ml mean, control (rivaroxaban alone) group, mean of rats 13-18, time 0.5", "value": 397, "unit": "ng/mL"},
      {"measurement": "concentration at 1 h", "setting": "male, Sprague-Dawley, rat, plasma, oral, 10 mg/kg, rivaroxaban ng/ml mean, control (rivaroxaban alone) group, mean of rats 13-18, time 1", "value": 435, "unit": "ng/mL"},
      {"measurement": "concentration at 2 h", "setting": "male, Sprague-Dawley, rat, plasma, oral, 10 mg/kg, rivaroxaban ng/ml mean, control (rivaroxaban alone) group, mean of rats 13-18, time 2", "value": 337, "unit": "ng/mL"},
      {"measurement": "concentration at 3 h", "setting": "male, Sprague-Dawley, rat, plasma, oral, 10 mg/kg, rivaroxaban ng/ml mean, control (rivaroxaban alone) group, mean of rats 13-18, time 3", "value": 291, "unit": "ng/mL"},
      {"measurement": "concentration at 4 h", "setting": "male, Sprague-Dawley, rat, plasma, oral, 10 mg/kg, rivaroxaban ng/ml mean, control (rivaroxaban alone) group, mean of rats 13-18, time 4", "value": 238, "unit": "ng/mL"}
    ]}
  ]
}
